This data set is described as follows: in vitro. To be noted: human, hela cells, % viability.

For `CCCCc1c(C)nc2c(OC)cccc2c1SCCC(=O)O` [CBK126917], the viability at 28.5 h, 10 µM was 99.5%.
Regarding `O=C(c1ccco1)N1CCC2(CC1)OCc1cc(Cl)ccc1O2` [CBK061068], the viability at 28.5 h, 10 µM (bulk resorufin, single well) stood at 94.4%.
Regarding `CCN(NC(=O)c1ccccc1-n1cccc1)c1ccc(C)cc1` [CBK161507], the viability at 28.5 h, 10 µM was 110%.
Take `COc1ccc(-c2cc(N3CCN(CCN4CCCC4)CC3)ncn2)cc1OC` [CBK091173]: the viability at 28.5 h, 10 µM worked out at 94.5%.
Still for that read-out and setting: with `Cn1ncc2c(=O)n(Cc3nnsc3Cl)cnc21` [CBK237374] the figure was 102%; with `CCCC(=O)NC[C@H]1CC[C@H](c2ccnc3cc(C)nn32)CC1` [CBK283474], 102%.
Still for that read-out and setting: with `O=C(c1ccccc1Cl)N1CCN(c2ccc([N+](=O)[O-])c(NCc3cccnc3)c2)CC1` [CBK265866] the figure was 108%.
Still for that read-out and setting: with `C#CC1(OC(=O)CC)CCN(CCCC(=O)c2ccc(F)cc2)CC1` [CBK025277C] the figure was 108%; with `O=c1c2cc(Cl)ccc2sc2ncccc12` [CBK008118], 97.4%.
Regarding `COCCCOc1nccnc1NC(C)C` [CBK115876], the viability at 28.5 h, 10 µM is 90%.
`O=C(NC1CCN(CC2(c3ccccc3)CC2)CC1)c1ccco1` [CBK285321]: the viability at 28.5 h, 10 µM amounted to 83.7%.
As to `CCOC(=O)Cc1nc2cc([N+](=O)[O-])ccc2oc1=O` [CBK015603], the viability at 28.5 h, 10 µM stood at 98%.
Turning to `COc1ccc(N2C(=O)c3ccc(C(=O)OCC(=O)c4ccccc4Cl)cc3C2=O)c([N+](=O)[O-])c1` [CBK265514], the viability at 28.5 h, 10 µM turned out to be 83.7%.
Still for that read-out and setting: with `O=C(c1cc(F)c(F)cc1F)N1CCC2(CCCN(C(=O)c3cccc4[nH]ccc34)C2)C1` (centres unmarked) [CBK131544] the figure was 97.3%; with `CN(C)c1cccc(Nc2cc(-c3ccco3)ncn2)c1` [CBK091014], 87.5%; with `O=C(COc1ccc(S(=O)(=O)N2CCCCC2)cc1)N1CCN(Cc2ccccc2)CC1` [CBK269144], 87.1%.
The same measure, in the same setting: the result for `COC(=O)c1ccccc1NC(=O)C1CCCN(S(=O)(=O)c2cc(Cl)ccc2Cl)C1` (centres unmarked) [CBK268797] reads 101%; that for `CCC(C)(CC(=O)O)CC(=O)N1CCC2(CC1)OCCc1c2[nH]c2ccccc12` (centres unmarked) [CBK047051], 102%.
`CCOc1ccc(C(=O)NC(=S)Nc2sc(C)c(C)c2C#N)cc1Cl` [CBK268900]: the viability at 28.5 h, 10 µM is 91.8%.
Still for that read-out and setting: the result for `CCC(CO)Nc1cncc(-c2cccc(O)c2)n1` (centres unmarked) [CBK037777] reads 96%; that for `O=C(NCCn1cccn1)N1CCCN(Cc2ccncc2)CC1` [CBK307129], 90.1%.
Same read-out and setting: with `COCCc1nc(C2CCC2)n(Cc2ccccc2C)n1` [CBK307238] the figure was 91.8%; with `CN(Cc1nccs1)C(=O)c1cccc(OCC(=O)N2CCCCC2)c1` [CBK307478], 108%; with `Fc1cccc(-c2nc3c(s2)CN(C2CCOCC2)CC3)c1` [CBK281647], 87%.
Consider `COc1ccc(-c2ccc(=O)n3c2[C@@H]2C[C@@H](CN(C(=O)NC4CCCCC4)C2)C3)cc1` [CBK289189], for which the viability at 28.5 h, 10 µM was determined as 82.1%.
Same read-out and setting: the result for `O=C(Oc1ccc(N(C(=O)c2ccncc2)S(=O)(=O)c2cccc3cccnc23)c2ccccc12)c1ccncc1` [CBK266915] reads 79.5%; that for `COCCN(Cc1cnn(C)c1)C(=O)Nc1cccc2nc(C)ccc12` [CBK306529], 106%.
Still for that read-out and setting: with `Cc1noc(C)c1C(=O)N1CCC(c2ccncc2)CC1` [CBK282334] the figure was 110%; with `CC(C)n1c(=O)n(C(=O)c2ccco2)c2cccnc21` [CBK283856], 102%; with `CN1CCN(CCCCn2nc3n(c2=O)-c2ccccc2OC3(C)C)CC1` [CBK023953C], 95.8%.
Same read-out and setting: the result for `Cc1cc(/C=C2/C(=N)N3N=C(Cc4ccccc4)SC3=NC2=O)c(C)n1-c1ccccc1` [CBK264318] reads 100%; that for `Cc1nccn1CCCNC(=O)c1cccc(N2CCCCC2)c1` [CBK281646], 91.4%; that for `COC(=O)c1ccc(NC(=O)C2Cc3ccccc3CN2S(=O)(=O)c2cccs2)cc1` (centres unmarked) [CBK265693], 92.7%.
`O=C(c1ccc(NS(=O)(=O)c2ccccc2)cc1)N1CCN(Cc2ccc3c(c2)OCO3)CC1` [CBK267957]: the viability at 28.5 h, 10 µM is 102%.
As for `COc1ccc(-c2cnc(N)c(-c3ccc(F)c(Cl)c3)n2)cn1` [CBK063966], the viability at 28.5 h, 10 µM came to 111%.
Consider `Cc1nc2c(C(=O)NCC(F)(F)F)cnn2c(C)c1Cc1ccccc1` [CBK162208], for which the viability at 28.5 h, 10 µM is 94.8%.
Same read-out and setting: the result for `Cc1ccc(NS(=O)(=O)c2cc(C(=O)N3CCN(Cc4ccc5c(c4)OCO5)CC3)ccc2C)cc1` [CBK268521] reads 102%.
In the case of `Cc1ncccc1OC1(C(=O)NCc2n[nH]c3c2CCC3)CCNCC1` [CBK307057], the viability at 28.5 h, 10 µM turned out to be 101%.
As for `Cc1nn(C)c(C)c1NC(=O)c1ccc(S(=O)(=O)N(C)C)cc1` [CBK266059], the viability at 28.5 h, 10 µM amounted to 93.8%.
As for `COCCN1C(=O)C2(CC(=O)N(CC3CCCCC3)C2=O)c2cc(OC)ccc21` (centres unmarked) [CBK075166], the viability at 28.5 h, 10 µM worked out at 90%.
Same read-out and setting: the result for `O=C(O)C(c1c[nH]c2cc(CO)ccc12)N1CCCN(c2ccc(C(F)(F)F)cn2)CC1` (centres unmarked) [CBK286845] reads 85.3%; that for `CCCCOc1ccc(OC(=O)COCCOCCN2C(=O)c3ccccc3C2=O)cc1` [CBK155584], 92.6%; that for `Cc1ccc2c(c1)c(C)c(C(=O)NCCn1ccc(C)n1)n2C` [CBK282609], 106%.
On to `Cc1ccccc1NC(=O)CCC(=O)N/N=C/c1ccncc1` [CBK262016], for which the viability at 28.5 h, 10 µM was 101%.
On the same count and under the same terms, the result for `O=C(O)c1snnc1-c1ccccc1` [CBK021545] reads 90.9%; that for `COc1ccc2nc(C(=O)O)sc2c1` [CBK026523N], 88.4%; that for `O=C(c1ccncc1)n1nc(NCc2ccccc2)nc1NCc1ccccc1` [CBK269069], 89.5%.
On the same count and under the same terms, the result for `c1csc(CN2CCNCC2)c1` [CBK027324] reads 105%; that for `O=C1NC2CCCCC2NC1CC(=O)N1CCN(C(c2ccccc2)c2ccccc2)CC1` (centres unmarked) [CBK269201], 88.7%.
The same measure, in the same setting: with `CN(Cc1nnc(C2CC2)n1C)C1CCN(CCCc2cn[nH]c2)C1` (centres unmarked) [CBK305305] the figure was 85.2%; with `CCOC(=O)N1CCC(NC(=O)N2CCCC(C(=O)N(CC)CC)C2)CC1` (centres unmarked) [CBK156159], 109%; with `COc1cc(CN2CCN(C(=O)c3cccc4ccccc34)CC2)cc(OC)c1O` [CBK263477], 103%.
For the compound `O=S(=O)(c1ccccc1)n1ccc2c(Br)cccc21` [CBK002084], the viability at 28.5 h, 10 µM came out at 113%.
Regarding `Cc1cc(C=C2C(=O)NC(=O)NC2=O)c(C)n1C1CCCCC1` [CBK263426], where the note is “bulk resorufin, single well”, the viability at 28.5 h, 10 µM worked out at 93.6%.
As for `O=C(Cc1ccccc1)N1CCN(Cc2ccc3ccccc3c2)CC1` [CBK263037], the viability at 28.5 h, 10 µM came to 112%.
As to `CC#Cc1cn([C@H]2C[C@@H](O)[C@@H](CO)O2)c(=O)nc1N` [CBK201257], the viability at 28.5 h, 10 µM was 105%.
Regarding `Nc1ncc(-c2cncnc2)nc1-c1ccc(CCC(=O)O)cc1` [CBK064120], the viability at 28.5 h, 10 µM was determined as 102%.
For the compound `CC(C)CC(=O)N1CCC(n2c(=O)oc3ccc(Cl)cc32)CC1` [CBK285477], the viability at 28.5 h, 10 µM worked out at 105%.
On the same count and under the same terms, the result for `O=C(c1ccco1)c1cnc2ccccn2c1=O` [CBK010791] reads 109%; that for `O=C(O)C1CC=CCC1C(=O)Nc1ccc(S(=O)(=O)N2CCc3ccccc32)cc1` (centres unmarked) [CBK268122], 108%.
The same measure, in the same setting: with `COc1cc(CN2CCN(Cc3ccccc3)CC2)cc([N+](=O)[O-])c1O` [CBK261574] the figure was 99%; with `COCOc1ccc(-c2nccnc2OC2CCCCC2)cc1` [CBK106917], 94.3%; with `CCN(CC)S(=O)(=O)c1ccc(Cl)c(C(=O)Oc2cccc3cccnc23)c1` [CBK263205], 118%.
Turning to `O=C(Nc1ccc2cc(Br)cnc2n1)c1ccccc1[N+](=O)[O-]` [CBK063253], the viability at 28.5 h, 10 µM was determined as 96.8%.
Still for that read-out and setting: the result for `OCCNc1ncnc2ccc(Br)cc12` [CBK073217] reads 93.9%; that for `CCCc1cc(=O)n2c(n1)SCOC2` [CBK010967], 108%.
On to `CC(=O)NC[C@H]1CN(c2ccc(C#N)c(C)c2)C(=O)O1` [CBK010393], for which the viability at 28.5 h, 10 µM is 107%.
Same read-out and setting: with `O=C(N[C@@H](Cn1cc(Cl)c(=O)[nH]c1=O)C(=O)O)c1cccc(F)c1` [CBK289650] the figure was 118%.
The same measure, in the same setting: the result for `CCN(CC)C(=O)CN1CCC(Oc2cncc(OCC3COc4ccccc4O3)n2)C1` (centres unmarked) [CBK084374] reads 102%; that for `Cc1ccc(S(N)(=O)=O)cc1C(=O)NC(C)CCc1ccccc1` (centres unmarked) [CBK296671], 87.2%; that for `COc1ccc(Cl)c(Cn2c(NCc3ccccn3)nc3c2c(=O)n(C)c(=O)n3C)c1` [CBK268965], 97.6%.
On the same count and under the same terms, with `CC1(C)C=Cc2cc(/C(N)=N/O)ccc2O1` [CBK006095] the figure was 96.2%; with `O=S(=O)(c1ccccc1)n1cc2c3c(cccc31)CN(CCO)C2` [CBK156333T], 106%.
Turning to `COCCn1ccnc1C1CCCN(C(=O)COc2ccccc2Cl)C1` (centres unmarked) [CBK307211], the viability at 28.5 h, 10 µM amounted to 90.2%.
On the same count and under the same terms, the result for `O=C(O)C1CCN(C(=O)Cc2c[nH]c3ccccc23)CC1` [CBK202747] reads 82.7%; that for `CCCS(=O)(=O)n1ccn(-c2cccc(C(F)(F)F)c2)c1=O` [CBK106585], 88.3%.
Turning to `Cc1nc(SCc2cccc(C(=O)O)c2)nc2c1CCCC2` [CBK266997], the viability at 28.5 h, 10 µM was 87.3%.
With `O=C(O)CCC(=O)Nc1ccc(Sc2ccc([N+](=O)[O-])cc2)cc1` [CBK020438], the viability at 28.5 h, 10 µM is 92.5%.
Same read-out and setting: with `COc1ccc(C2(NCc3ccc4c(c3)n(C)c(=O)n4C)CC2)cc1` [CBK282836] the figure was 103%; with `O=S(=O)(c1ccc2ccccc2c1)N1CCCCC1CO` (centres unmarked) [CBK200055], 100%.

The values above are taken from publication PMC12040169 (PLOS Biology, 2025).
